By IC50 is commonly meant the concentration that gives 50% inhibition.

35 molecules from US20190151312A1, “HEPARAN SULFATE BIOSYNTHESIS INHIBITORS FOR THE TREATMENT OF DISEASES” (BioMarin Pharmaceutical Inc., priority 2014, published 2019) can be followed below.

For the first experiment, the system named is GM01896 cells (MPS II dermal fibroblasts). In words: Assay 1: MPS cellular assay, MPS II (heparan sulfate disaccharide biomarkers by LC-MS). Particulars: Assay 1 for MPS II, heparan sulfate disaccharide biomarkers (I2a4, I2a6, I2S0 and/or I2S6), read-out: IC50 Range. In kind it is cell-based, human. Put shortly:
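Heparan sulfate disaccharide biomarkers quantified by LC-MS after heparinase I/II/III digestion and isotopic aniline labelling, using GM01896 MPS II fibroblasts exposed to compound (at or below 30 μM, 4-21 days). Values given as IC50 by curve fitting; cell viability checked with alamar blue or ATP.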
In the case of “{6-[1-methyl-3-(2-morpholin-4-ylethyl)(1H-indazol-6-yl)]-2-morpholin-4-ylpyrimidin-4-yl}[4-(3-methylpyrazolyl)phenyl]amine”, the IC50 was less than 500 nM.
Turning to `Cn1c(=O)[nH]c2ccc(-c3cc(Nc4ccc(Cl)cc4)nc(N4CCOCC4)n3)cc21` [6-{6-[(4-chlorophenyl)amino]-2-morpholin-4-ylpyrimidin-4-yl}-1-methyl-3-hydrobenzimidazol-2-one], the IC50 was less than 500 nM.
As for `CN(C)CCCn1cnc2ccc(-c3cc(Nc4ccc(Cl)cc4)nc(N4CCOCC4)n3)cc21` [[3-(6-{6-[(4-chlorophenyl)amino]-2-morpholin-4-ylpyrimidin-4-yl}benzimidazolyl)propyl]dimethylamine], the IC50 was 500 to 1000 nM.
Regarding `CN(C)C(=O)c1ccc(Nc2cc(-c3ccc4cnn(C)c4c3)nc(N3CCOCC3)n2)cc1` [N,N-dimethyl(4-{[6-(1-methyl(1H-indazol-6-yl))-2-morphlin-4-ylpyrimidin-4-yl]amino}phenyl)carboxamide], the IC50 lay within 500 to 1000 nM.
For the molecule `Cn1c(=O)n(C)c2cc(-c3cc(Nc4ccc(Cl)cc4)nc(N4CCOCC4)n3)ccc21` [5-{6-[(4-chlorophenyl)amino]-2-morpholin-4-ylpyrimidin-4-yl}-1,3-dimethyl-3-hydrobenzimidazol-2-one], the 50% inhibitory concentration (IC50) is less than 500 nM.

Staying with this experiment, now noted: Homo sapiens, Fibroblast, Assay 1 for MPS II, heparan sulfate disaccharide biomarkers (I2a4, I2a6, I2S0 and/or I2S6), read-out: IC50 Range.
Turning to `CC(C)NC(=O)c1ccc(Nc2cc(-c3ccc4cnn(C)c4c3)nc(N3CCOCC3)n2)cc1` [(4-{[6-(1-methyl(1H-indazol-6-yl))-2-morpholin-4-ylpyrimidin-4-yl]amino}phenyl)-N-(methylethyl)carboxamide], the concentration for half-maximal inhibition (IC50) is 500 to 1000 nM.
Consider `Cn1ncc2ccc(-c3cc(Nc4ccc(-n5nccn5)cc4)nc(N4CCOCC4)n3)cc21` [[6-(1-methyl(1H-indazol-6-yl))-2-morpholin-4-ylpyrimidin-4-yl](4-(1,2,3-triazol-2-yl)phenyl)amine], for which the concentration for half-maximal inhibition (IC50) was less than 500 nM.
Take `Clc1ccc(Nc2cc(-c3ccc4ncn(C5COC5)c4c3)nc(N3CCOCC3)n2)cc1` [(4-chlorophenyl)[2-morpholin-4-yl-6-(1-oxetan-3-ylbenzimidazol-6-yl)pyrimidin-4-yl]amine]: the concentration for half-maximal inhibition (IC50) was less than 500 nM.
The same measure, in the same setting: the value for `Cn1ncc2ncc(-c3cc(Nc4ccc(Cl)cc4)nc(N4CCOCC4)n3)cc21` [(4-chlorophenyl)[6-(1-methylpyrazolo[4,5-b]pyridin-6-yl)-2-morpholin-4-ylpyrimidin-4-yl]amine] was 500 to 1000 nM; that for `CNC(=O)c1ccc(Nc2cc(-c3ccc4ncn(CCOC)c4c3)nc(N3CCOCC3)n2)cc1` [[4-({6-[1-(2-methoxyethyl)benzimidazol-6-yl]-2-morpholin-4-ylpyrimidin-4-yl}amino)phenyl]-N-methylcarboxamide] was less than 500 nM.
On to `CNC(=O)c1ccc(Nc2cc(-c3ccc4c(cnn4C)c3)nc(N3CCOCC3)n2)cn1` [N-methyl(5-{[6-(1-methyl(1H-indazol-5-yl))-2-morpholin-4-ylpyrimidin-4-yl]amino}(2-pyridyl))carboxamide], for which the half-maximal inhibitory concentration (IC50) fell in the range of 500 to 1000 nM.
For `Cn1nc(NCCN2CCCC2)c2ccc(-c3cc(Nc4ccc(Cl)cc4)nc(N4CCOCC4)n3)cc21` [(4-chlorophenyl)(6-{1-methyl-3-[(2-pyrrolidinylethyl)amino](1H-indazol-6-yl)}-2-morpholin-4-ylpyrimidin-4-yl)amine], the IC50 is 500 to 1000 nM.
On the same count and under the same terms, with `Cc1nn(CCN2CCOCC2)c2cc(-c3cc(Nc4ccc(Cl)cc4)nc(N4CCOCC4)n3)ccc12` [(4-chlorophenyl){6-[3-methyl-1-(2-morpholin-4-ylethyl)(1H-indazol-6-yl)]-2-morpholin-4-ylpyrimidin-4-yl}amine] the figure was 500 to 1000 nM; with `Cc1nc2ccc(-c3cc(Nc4ccc(Cl)cc4)nc(N4CCOCC4)n3)cc2n1CCN1CCCC1` [(4-chlorophenyl){6-[2-methyl-1-(2-pyrrolidinylethyl)benzimidazol-6-yl]-2-morpholin-4-ylpyrimidin-4-yl}amine], 1000 to 5000 nM; with `Cc1c2ccc(-c3cc(Nc4ccc(Cl)cc4)nc(N4CCOCC4)n3)cc2nn1CCN(C)C` [[2-(6-{6-[(4-chlorophenyl)amino]-2-morpholin-4-ylpyrimidin-4-yl}-3-methyl(2H-indazol-2-yl))ethyl]dimethylamine], 1000 to 5000 nM.
In the case of `Cn1ncc2ccc(-c3cc(Nc4ccc(-c5c[nH]cn5)cc4)nc(N4CCOCC4)n3)cc21` [(4-imidazol-4-ylphenyl)[6-(1-methyl(1H-indazol-6-yl))-2-morpholin-4-ylpyrimidin-4-yl]amine], the IC50 is 500 to 1000 nM.
In the case of `Cn1ncc2ccc(-c3cc(Nc4ccc(C(=O)NC5CC5)cc4)nc(N4CCOCC4)n3)cc21` [N-cyclopropyl(4-{[6-(1-methyl(1H-indazol-6-yl))-2-morpholin-4-ylpyrimidin-4-yl]amino}phenyl)carboxamide], the IC50 was in the range of 1000 to 5000 nM.
Still for that read-out and setting: with `Cn1c(C2CC2)nc2ccc(-c3cc(Nc4ccc(Cl)cc4)nc(N4CCOCC4)n3)cc21` [(4-chlorophenyl)[6-(2-cyclopropyl-1-methylbenzimidazol-6-yl)-2-morpholin-4-ylpyrimidin-4-yl]amine] the figure was 500 to 1000 nM; with `Cc1nn(C)c2cc(-c3cc(Nc4ccc(C5=NCCO5)cc4)nc(N4CCOCC4)n3)ccc12` [[6-(1,3-dimethyl(1H-indazol-6-yl))-2-morpholin-4-ylpyrimidin-4-yl](4-(1,3-oxazolin-2-yl)phenyl)amine], 1000 to 5000 nM.
Consider `Cc1nn(C)c2cc(-c3cc(Nc4ccc5ccn(C)c5c4)nc(N4CCOCC4)n3)ccc12` [[6-(1,3-dimethyl(1H-indazol-6-yl))-2-morpholin-4-ylpyrimidin-4-yl](1-methylindol-6-yl)amine], for which the IC50 is less than 500 nM.
Same read-out and setting: the value for `CNC(=O)c1ccc(Nc2cc(-c3ccc4cnn(CCN5CCOCC5)c4c3)nc(N3CCOCC3)n2)cc1` [N-methyl[4-({2-morpholin-4-yl-6-[1-(2-morpholin-4-ylethyl)(1H-indazol-6-yl)]pyrimidin-4-yl}amino)phenyl]carboxamide] was 500 to 1000 nM; that for `CC(=O)Nc1ccc(Nc2cc(-c3ccc4cnn(C)c4c3)nc(N3CCOCC3)n2)cc1` [N-(4-{[6-(1-methyl(1H-indazol-6-yl))-2-morpholin-4-ylpyrimidin-4-yl]amino}phenyl)acetamide] was 500 to 1000 nM.
Same read-out and setting: the value for `Cc1nnc(-c2ccc(Nc3cc(-c4ccc5cnn(C)c5c4)nc(N4CCOCC4)n3)cc2)[nH]1` [[6-(1-methyl(1H-indazol-6-yl))-2-morpholin-4-ylpyrimidin-4-yl][4-(5-methyl(4H-1,2,4-triazol-3-yl))phenyl]amine] was less than 500 nM; that for `CN(C)CCCn1ncc2ccc(-c3cc(Nc4ccc(Cl)cc4)nc(N4CCOCC4)n3)cc21` [[3-(6-{6-[(4-chlorophenyl)amino]-2-morpholin-4-ylpyrimidin-4-yl}(1H-indazolyl))propyl]dimethylamine] was 1000 to 5000 nM.
The same measure, in the same setting: the value for `Cc1nn(C)c2cc(-c3cc(Nc4ccc5[nH]ccc5c4)nc(N4CCOCC4)n3)ccc12` [[6-(1,3-dimethyl(1H-indazol-6-yl))-2-morpholin-4-ylpyrimidin-4-yl]indol-5-ylamine] was 1000 to 5000 nM; that for `Clc1ccc(Nc2cc(-c3ccc4cnn(CCCN5CCOCC5)c4c3)nc(N3CCOCC3)n2)cc1` [(4-chlorophenyl){2-morpholin-4-yl-6-[1-(3-morpholin-4-ylpropyl)(1H-indazol-6-yl)]pyrimidin-4-yl}amine] was 1000 to 5000 nM.
`Cn1cnc2ccc(-c3cc(Nc4ccc(C(=O)NC5CC5)cc4)nc(N4CCOCC4)n3)cc21` [N-cyclopropyl(4-{[6-(1-methylbenzimidazol-6-yl)-2-morpholin-4-ylpyrimidin-4-yl]amino}phenyl)carboxamide]: the IC50 was in the range of 1000 to 5000 nM.
For `Cn1nc(CCN2CCNCC2)c2ccc(-c3cc(Nc4ccc(Cl)cc4)nc(N4CCOCC4)n3)cc21` [(4-chlorophenyl){6-[1-methyl-3-(2-piperazinylethyl)(1H-indazol-6-yl)]-2-morpholin-4-ylpyrimidin-4-yl}amine], the IC50 was in the range of 1000 to 5000 nM.
Turning to `Cc1nn(C)c2cc(-c3cc(Nc4ccc5c(ccn5C)c4)nc(N4CCOCC4)n3)ccc12` [[6-(1,3-dimethyl(1H-indazol-6-yl))-2-morpholin-4-ylpyrimidin-4-yl](1-methylindol-5-yl)amine], the IC50 is 500 to 1000 nM.
In the case of `Cn1ccc2ccc(Nc3cc(-c4ccc5nc(CCN6CCOCC6)n(CC6CC6)c5c4)nc(N4CCOCC4)n3)cc21` [{6-[1-(cyclopropylmethyl)-2-(2-morpholin-4-ylethyl)benzimidazol-6-yl]-2-morpholin-4-ylpyrimidin-4-yl}(1-methylindol-6-yl)amine], the 50% inhibitory concentration (IC50) was less than 500 nM.
`Cn1ncc2ccc(-c3cc(Nc4ccc(S(N)(=O)=O)cc4)nc(N4CCOCC4)n3)cc21` [4-{[6-(1-methyl(1H-indazol-6-yl))-2-morpholin-4-ylpyrimidin-4-yl]amino}benzenesulfonamide]: the IC50 lay in the range of 1000 to 5000 nM.
Same read-out and setting: the value for `Cc1nn(C)c2cc(-c3cc(Nc4ccc5[nH]ncc5c4)nc(N4CCOCC4)n3)ccc12` [1H-indazol-5-yl[6-(1,3-dimethyl(1H-indazol-6-yl))-2-morpholin-4-ylpyrimidin-4-yl]amine] was 1000 to 5000 nM; that for `Cn1ncc2ccc(-c3cc(Nc4ccccc4)nc(N4CCOCC4)n3)cc21` [6-(1-methyl-1H-indazol-6-yl)-2-morpholino-N-phenylpyrimidin-4-amine] was 1000 to 5000 nM.
On the same count and under the same terms, the value for `Cn1ncc2ccc(-c3cc(Nc4ccc(-c5ncon5)cc4)nc(N4CCOCC4)n3)cc21` [[6-(1-methyl(1H-indazol-6-yl))-2-morpholin-4-ylpyrimidin-4-yl](4-(1,2,4-oxadiazol-3-yl)phenyl)amine] was 500 to 1000 nM.
`Cn1ncc2ccc(-c3cc(Nc4ccc5cc[nH]c5c4)nc(N4CCOCC4)n3)cc21` [indol-6-yl[6-(1-methyl(1H-indazol-6-yl))-2-morpholin-4-ylpyrimidin-4-yl]amine]: the IC50 is 1000 to 5000 nM.
